The assay has as its target T1, cAMPinG1 (Mus musculus, UniProt Q9DBC7, DEL187-189).
T1 construct: gene Prkar1a; PKA-R1α residues 108-186 and 190-381, N-terminus removed, cpGFP (from GCaMP6f) inserted in the β4–β5 loop replacing 187-189, engineered linkers/cpGFP, N-terminal RSET; expressed in HEK293T, lysate
Kind of assay: sensor fluorescence titration in HEK293T lysate, Hill fit. In kind it is binding.

T1 sequence (Q9DBC7 108-186, stated change not applied): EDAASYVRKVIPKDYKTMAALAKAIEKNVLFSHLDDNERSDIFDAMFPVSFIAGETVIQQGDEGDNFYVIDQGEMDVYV
T1 sequence (Q9DBC7 190-381, stated change not applied): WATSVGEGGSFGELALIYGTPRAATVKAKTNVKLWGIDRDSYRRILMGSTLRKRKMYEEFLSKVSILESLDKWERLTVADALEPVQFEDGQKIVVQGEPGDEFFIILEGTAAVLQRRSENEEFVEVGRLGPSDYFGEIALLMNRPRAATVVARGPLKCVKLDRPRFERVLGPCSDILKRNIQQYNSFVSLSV

What is called Kd is the free concentration of one partner at which half of the binding sites on the other are occupied at equilibrium, for simple one-to-one binding. Higher therefore signals a looser complex. As to `Nc1nc2c(ncn2[C@@H]2O[C@@H]3COP(=O)(O)O[C@H]3[C@H]2O)c(=O)[nH]1` [cGMP], binding was characterised by a dissociation constant (Kd) of 12.2 µM.

These data come from PMC11093745 (Nature Methods, 2024).
